These results are taken from patent US6878364B2, “Animal model for flaviviridae infection” (Cornell Research Foundation, Inc., priority 2000, dated 2005).

Data set [1] in a line: Cytotoxicity on uninfected WCH-8 cells (methylene blue assay). Type of data set: cell-based. As to conditions: woodchuck, uninfected woodchuck hepatic WCH-8 cells, three days of treatment.
The test system of data set [2] is cpBVDV (cytopathogenic NADL isolate of BVDV). Put plainly: microbe, parasite or virus in culture. As to conditions: Bovine viral diarrhea virus isolates and strains, in Marmota monax, 72 h, read-out: ckEC50 (drug concentration sufficient to inhibit 50% of viral induced cell killing).
Experimental: (§1) BVDV stocks and titration: The cytopathogenic NADL isolate of BVDV (cpBVDV) was used for the purposes of this study. A viral stock was made by freeze-thaw of a bovine testicular cell line 5 days after infection with cpBVDV. Virus propagated in bovine cells and woodchuck cell cultures was tittered in NCL cells by measuring cytopathic effects (CPE). NCL cells grown to confluence, were passaged to 96 well microtiter plates at a density of 2×10^4 cells/well (5×10^5/cm^2) and incubated for one hour to allow cell attachment. After attachment, cell cultures were inoculated with serially diluted tissue culture supernatant samples. The endpoint BVDV titer was taken as the reciprocal of the last dilution in which cells were killed 5 days post-infection in one of three triplicate wells, assayed by methylene blue staining.
(§2) Methylene blue assay: A quantitative measure of cell numbers was obtained through reading the absorbance of methylene blue (Sigma, St. Louis, Mo.) uptake by viable cells. Briefly, three days after infection of cells with cpBVDV, cultures were rinsed with phosphate buffered saline (PBS; Life Technologies) followed by fixation in a Hanks balanced salt solution (HBSS; LifeTechnologies) consisting of 1.25% glutaraldehyde (Fisher Scientific, Fair Lawn, N.J.) and 0.06% methylene blue (Sigma), for 1 hour at 37° C. […] The absorbance of the methylene blue in solution was measured using an ELISA plate reader (Model EL311; Bio-Tek instruments Inc., Winooski, Vt.) with a light filter setting at 630 nm. A standard curve was established for each cell line relating absorbance with cell numbers. […]
(§3) The medium was replenished daily with drug and the antiviral effect, cytotoxicity, and reduction in viral yield determined after three days of treatment.
(§4) Cell killing due to cpBVDV infection and drug cytotoxicity was calculated for each experimental data point and plotted. […] A drug concentration sufficient to inhibit 50% of viral induced cell killing (ckEC50) was determined using a peak, log normal, 4 parameter equation. […] A selectivity index (SI) was determined as the CC50/EC90 ratio.
For data set [3] the test system is unchanged. The data set can be described thus: microbe, parasite or virus in culture. The conditions noted are these: Bovine viral diarrhea virus isolates and strains, in Bos taurus, 72 h, read-out: ckEC50 (drug concentration sufficient to inhibit 50% of viral induced cell killing).
Experimental: as §1, §2, §3, §4
A short description of data set [4]: Cytotoxicity on uninfected woodchuck primary hepatocytes (CytoTox96). It counts as cell-based.
Data set [5] relates to cpBVDV (cytopathogenic NADL isolate of BVDV).
Experimental: as §1, §2, §3, §4
For a further data set, the system named is HCV. The conditions noted are these: cited from earlier work.
The subject of data set [6] is cpBVDV (cytopathogenic NADL isolate of BVDV). This is another data set of the same source.
Experimental: Virus propagated in bovine cells and woodchuck cell cultures was tittered in NCL cells by measuring cytopathic effects (CPE). NCL cells grown to confluence, were passaged to 96 well microtiter plates at a density of 2×10^4 cells/well (5×10^5/cm^2) and incubated for one hour to allow cell attachment. After attachment, cell cultures were inoculated with serially diluted tissue culture supernatant samples. The endpoint BVDV titer was taken as the reciprocal of the last dilution in which cells were killed 5 days post-infection in one of three triplicate wells, assayed by methylene blue staining.
Antiviral assay: A lyophilized form of Ribavirin (Virazole^R; Viratek, Inc., Covina, Calif.) was dissolved in H2O to a yield a stock concentration of 100 mM and serially diluted two fold in culture medium prior to testing over a range of 100-0.049 μM. Ribavirin was evaluated in woodchuck WCH-8 cells and in bovine NCL cells in a 96 well format using the methylene blue assay to measure cell viability. The medium was replenished daily with drug and the antiviral effect, cytotoxicity, and reduction in viral yield determined after three days of treatment. […]
Cell killing due to cpBVDV infection and drug cytotoxicity was calculated for each experimental data point and plotted. […] A selectivity index (SI) was determined as the CC50/EC90 ratio.
The test system is the same in data set [7]. This is another data set of the same source.
Experimental: as §1, §2, §3, §4
The nature of another data set: in vitro. Type of data set: cell-based. The conditions noted are these: bovine.

Where two headings read alike, the source gives them in different places.

`NC(=O)c1ncn([C@@H]2O[C@H](CO)[C@@H](O)[C@H]2O)n1` [Ribavirin, 1-β-D-ribofuranosyl-1-1,2,4-triazole-3-carboxamide]: the CC50 (as a rule, the concentration giving 50% cytotoxicity) at 3 days in [1] was determined as 2.9 µM; in the data set “in vitro”, 4.3 µM. The EC50 in data set [2] stood at 1.5 µM; in [3] it was 5.2 µM. In addition, half-maximal cytotoxicity in [4] (CC50) was put at 44.8 µM. Besides, the “selectivity index (CC50/tEC90)” value in data set [5] (NCL cells) was 1.7; in [6] (woodchuck primary hepatocytes) it was 14.9; in data set [7] (WCH-8 cells), 2.7. For the same molecule, the “tEC90 (drug concentration which reduced viral titers by 90%)” value in [5] (cpBVDV-infected NCL cells, three days of treatment) is 3.1 µM; in data set [6] (cpBVDV-infected woodchuck primary hepatocytes) it was 3 µM; in data set [7] (cpBVDV-infected WCH-8 cells, three days of treatment) it was 1.1 µM. In the data set on HCV, the “patients with serum amino transferase levels reduced to normal” value was 40%.
